# In patent publication US20240316000A1, “METHODS OF TREATMENT” (DIFFUSION PHARMACEUTICALS LLC, priority 2021, published 2024):
# Tests used:
# healthy volunteers = assay: Transcutaneous oximetry (tcpO2) pharmacodynamic study, single IV bolus, subjects breathing 100% O2; format: in vivo, human; details: for Number (%) of Subjects with a TcpO2 increase during Period 2: TSC-treated N = 24, all doses
# Description: This is a randomized, double-blind, placebo-controlled, pharmacokinetic, pharmacodynamics study of Trans Sodium Crocetinate (TSC) utilizing Transcutaneous Oximetry Measurement (tcpO2) in healthy volunteers breathing 100% O2. Study assessments include tcpO2 levels, SpO2, and PK.
# TcpO2 sensor electrodes are applied to the left or right lower extremity, per PI discretion. Sensor electrode temperature is preset to 45° C., to allow maximum vasodilation. Risk of sensor site superficial burn is minimal given the relatively brief testing period. Four (4) sensors are applied to the following locations: • Sensor 1: Mid-dorsum of the foot • Sensor 2: 10 cm distal to the lateral femoral epicondyle • Sensor 3: 5 cm proximal to the anterior aspect of the lateral malleolus • Sensor 4: 5 cm proximal from the center of the medial malleolus
# After the tcpO2 sensors have been applied and tested, subjects are placed on O2 via a simple facemask at 6 L/minute, and remain on O2 for 70 minutes prior to study drug administration. The first 10 minutes allow for equilibration of O2 levels, and the subsequent 60 minutes serve as the baseline period. TcpO2 values and SpO2 are recorded every 5 minutes during the above periods. Baseline vital signs are measured within 10 minutes prior to study drug dosing.
# At the end of the 70-minute equilibration/baseline period, subjects continue on O2 and receive a single IV bolus injection of TSC at a dose of 0.5, 1.0, 1.5, 2.0 or 2.5 mg/kg, or placebo. After study drug administration, subjects are evaluated for 60 minutes, with tcpO2 values and SpO2 recorded every 5 minutes. In addition to assessment of tcpO2 every 5 minutes, continuous tcpO2 measurements are provided by the TCOM machine in graphical format.
# The primary analysis is based on the change over time in the tcpO2 measurements following a single administration of TSC in subjects breathing 100% O2. The time-matched changes from Period 1 (60 minute run-in on 100% O2) to Period 2 (60 minute post-drug administration on 100% O2) serve as the dependent variable in the repeated measures analysis. The 60 minute run-in on 100% O2 is intended to account for the intra-subject variability over time and the time-match differences represent the least biased estimate of the effect of the study drug.
# The overall pooled median values across the four TcpO2 sensors are calculated using the median value from each sensor during the same interval. To compare the time-matched changes in TcpO2, a 2-factor (treatment and time) repeated measures (time) analysis of variance (ANOVA) model is used. Contrast statements within the model facilitate comparisons between individual dose arms and placebo over time. Intra-subject changes (Period 2 minus Period 1 in 5-minute intervals) serve as the dependent variable in the model. TcpO2 baseline measures during the 60-minute Period 1 are adjusted for intra-subject variability over time. Time-matched differences between values obtained during Period 1 and Period 2 represent the least biased estimate of the effect of the study drug versus placebo.
# Therefore, a supplementary pharmacodynamic analysis on the intra-subject slopes from each period and sensor is performed. For Period 1, on an intra-subject basis, the median value from each of the 12 intervals is used to construct the slope using orthogonal spacing with respect to time. For Period 2, the slope is constructed using the median value from each of the 13 intervals—of note, Period 2 observations include 1- and 2-minute values—in addition to the 5-minute measurements for comparison to the 12 corresponding intervals of Period 1. An additional set of analyses are conducted using the Period 2 intra-subject slopes as the dependent variable. The active dose groups are pooled and the least square means are compared to placebo. This procedure is repeated iteratively, each time removing the next lowest dose group to determine the separation of each cohort's least square means relative to placebo.
# [1] = test system: healthy volunteers exercising at altitude; assay: Safety assessment in the altitude study; format: in vivo, human; details: all doses tested; no serious adverse events reported
# From the text: Adverse Events (AE), and Serious Adverse Events (SAE) will be reported per protocols. Laboratory values (complete blood count [CBC], basic metabolic panel [BMP] HIV, HBsAg, HCVAb), vital signs (blood pressure, heart rate, respiratory rate, temperature), and oxygen saturation (SpO2) will be monitored.
# [2] = test system: permanent (24-hour) focal ischemia; details: dosages tested 0.023 to 4.580 mg/kg; cited from earlier work
smiles,measurement,setting,value
"CC(/C=C/C=C(\C)C(=O)[O-])=C\C=C\C=C(C)\C=C\C=C(/C)C(=O)O.[Na+] [TSC, trans sodium crocetinate]",Dose giving the greatest difference in TcpO2 from placebo,healthy volunteers; 1-hour treatment period (Period 2),2.5 mg/kg
same,Peripheral oxygenation levels over time,"healthy volunteers; Period 2, placebo shows time related decrease",stable or increasing peripheral oxygenation levels over time
same,Number (%) of Subjects with a TcpO2 increase during Period 2,"healthy volunteers; Sensor 1 (mid-dorsum of the foot), placebo 1/5 (20.0%)",16/24 (66.7%)
same,"Intra-subject TcpO2 slopes, Least Square Mean","healthy volunteers; Sensor 1, pooling TSC doses ≥1.0 mg/kg, placebo −0.1878, probability 0.0960",0.3537
same,"Intra-subject TcpO2 slopes, Least Square Mean","healthy volunteers; Sensor 1, pooling TSC doses ≥1.5 mg/kg, placebo −0.1878, probability 0.1702",0.3027
same,"Intra-subject TcpO2 slopes, Least Square Mean","healthy volunteers; Sensor 1, pooling TSC doses ≥2.0 mg/kg, placebo −0.1878, probability 0.1430",0.4359
same,"Intra-subject TcpO2 slopes, Least Square Mean","healthy volunteers; Sensor 1, pooling all TSC doses, placebo −0.1878, probability 0.0876",0.3185
same,Number (%) of Subjects with a TcpO2 increase during Period 2,"healthy volunteers; Sensor 2, placebo 0/5",4/24 (16.7%)
same,"Intra-subject TcpO2 slopes, Least Square Mean","healthy volunteers; Sensor 2, pooling TSC doses ≥1.0 mg/kg, placebo −0.3481, probability 0.1139",0.0656
same,"Intra-subject TcpO2 slopes, Least Square Mean","healthy volunteers; Sensor 2, pooling TSC doses ≥1.5 mg/kg, placebo −0.3481, probability 0.1306",0.0149
same,"Intra-subject TcpO2 slopes, Least Square Mean","healthy volunteers; Sensor 2, pooling TSC doses ≥2.0 mg/kg, placebo −0.3481, probability 0.0959",0.0753
same,"Intra-subject TcpO2 slopes, Least Square Mean","healthy volunteers; Sensor 2, pooling all TSC doses, placebo −0.3481, probability 0.0796",0.0849
same,Number (%) of Subjects with a TcpO2 increase during Period 2,"healthy volunteers; Sensor 3, placebo 0/5",3/24 (12.5%)
same,"Intra-subject TcpO2 slopes, Least Square Mean","healthy volunteers; Sensor 3, pooling TSC doses ≥1.0 mg/kg, placebo −0.6320, probability 0.0301",0.0132
same,"Intra-subject TcpO2 slopes, Least Square Mean","healthy volunteers; Sensor 3, pooling TSC doses ≥1.5 mg/kg, placebo −0.6320, probability 0.0572",0.0249
same,"Intra-subject TcpO2 slopes, Least Square Mean","healthy volunteers; Sensor 3, pooling TSC doses ≥2.0 mg/kg, placebo −0.6320, probability 0.0421",0.0846
same,"Intra-subject TcpO2 slopes, Least Square Mean","healthy volunteers; Sensor 3, pooling all TSC doses, placebo −0.6320, probability 0.0186",0.0151
same,Number (%) of Subjects with a TcpO2 increase during Period 2,"healthy volunteers; Sensor 4, placebo 0/5",6/24 (25.0%)
same,"Intra-subject TcpO2 slopes, Least Square Mean","healthy volunteers; Sensor 4, pooling TSC doses ≥1.0 mg/kg, placebo −0.6389, probability 0.0213",0.0260
same,"Intra-subject TcpO2 slopes, Least Square Mean","healthy volunteers; Sensor 4, pooling TSC doses ≥1.5 mg/kg, placebo −0.6389, probability 0.0436",−0.0909
same,"Intra-subject TcpO2 slopes, Least Square Mean","healthy volunteers; Sensor 4, pooling TSC doses ≥2.0 mg/kg, placebo −0.6389, probability 0.0187",0.0297
same,"Intra-subject TcpO2 slopes, Least Square Mean","healthy volunteers; Sensor 4, pooling all TSC doses, placebo −0.6389, probability 0.0230",−0.0198
same,Increase in TcpO2 levels relative to placebo,"healthy volunteers; all TSC dose groups, supplemental analysis, Period 2",greater increase in TcpO2 levels than the placebo group
same,TCOM readings after TSC administration compared to placebo,"healthy volunteers; persists up to 60 minutes, most pronounced at 2.0 and 2.5 mg/kg iv",positive trend
same,Safety and tolerability,[1],safe and well tolerated at all doses tested
same,Dosage of maximal protective effect on cerebral infarct volume,[2],0.092 mg/kg
